Data reported in PMC12037410, “Pharmacological targeting of BMAL1 modulates circadian and immune pathways” (Nature Chemical Biology, 2025).
Like-named read-outs stand apart in the source and are kept apart here.

Target: BMAL1 (Homo sapiens, UniProt O00327)
Design: PASB domain (residues 338–449); Protein thermal shift (PTS) fragment screen on recombinant human BMAL1(PASB), shift of melting temperature
Settings: dTmB, binder

Chain of BMAL1 (O00327 338-449): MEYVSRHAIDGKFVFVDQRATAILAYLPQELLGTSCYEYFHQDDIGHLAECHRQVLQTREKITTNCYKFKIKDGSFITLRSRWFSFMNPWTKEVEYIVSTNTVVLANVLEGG

Structure (SMILES): Cc1ccccc1C(=O)Nc1ccccc1 [Prestw-Frag-3202, Compound 39]
- Bmal1(PASB) dTmB: -1.32 °C

Structure (SMILES): Cc1cc(=O)n(-c2ccc(C)c(C)c2)[nH]1 [Prestw-Frag-3221, Compound 342]
- Bmal1(PASB) dTmB: 1.18 °C

Structure (SMILES): Oc1ccccc1OCC(F)(F)F [Prestw-Frag-3225, Compound 113]
- Bmal1(PASB) dTmB: -0.44 °C

Structure (SMILES): Cc1cn(-c2cc(N)cc(C(F)(F)F)c2)cn1 [Prestw-Frag-3241, Compound 458]
- Bmal1(PASB) dTmB: -2.09 °C

Structure (SMILES): Cc1cc(C)[nH]c(=O)n1 [Prestw-Frag-3247, Compound 190]
- Bmal1(PASB) dTmB: 0.01 °C

Structure (SMILES): O=C(O)CC(c1ccccc1)c1ccccc1 [Prestw-Frag-3250, Compound 130]
- Bmal1(PASB) dTmB: -0.49 °C

Structure (SMILES): FC(F)(F)c1nnc2n1CCNC2 [Prestw-Frag-3253, Compound 136]
- Bmal1(PASB) dTmB: 0.11 °C

Structure (SMILES): CN1CCN(c2cc(N)ncn2)CC1 [Prestw-Frag-3262, Compound 191]
- Bmal1(PASB) dTmB: -0.17 °C

Structure (SMILES): Nc1ccn([C@H]2C[C@H](O)[C@@H](CO)O2)c(=O)n1 [Prestw-Frag-3264, Compound 107]
- Bmal1(PASB) dTmB: -0.01 °C

Structure (SMILES): Nc1ncn([C@@H]2O[C@H](CO)[C@@H](O)[C@H]2O)c(=O)n1 [Prestw-Frag-3302, Compound 121]
- Bmal1(PASB) dTmB: -0.02 °C

Structure (SMILES): COc1ccc(S(=O)(=O)N2CCNCC2)cc1 [Prestw-Frag-3313, Compound 215]
- Bmal1(PASB) dTmB: -0.02 °C

Structure (SMILES): CCOc1ccccc1C(=N)N [Prestw-Frag-3314, Compound 150]
- Bmal1(PASB) dTmB: -0.32 °C

Structure (SMILES): Nc1ncc([N+](=O)[O-])s1 [Prestw-Frag-3324, Compound 478]
- Bmal1(PASB) dTmB: -7.14 °C

Structure (SMILES): Nc1ncnc2c1ncn2CCO [Prestw-Frag-3329, Compound 91]
- Bmal1(PASB) dTmB: -0.48 °C

Structure (SMILES): O=C(c1ccc(C(F)(F)F)cc1)C1CCCCC1 [Prestw-Frag-3334, Compound 225]
- Bmal1(PASB) dTmB: -0.21 °C

Structure (SMILES): NC(=O)c1ccc2[nH]ccc2c1 [Prestw-Frag-3336, Compound 449]
- Bmal1(PASB) dTmB: -0.81 °C

Structure (SMILES): Nc1ccc(CS(=O)(=O)N2CCCC2)cc1 [Prestw-Frag-3341, Compound 142]
- Bmal1(PASB) dTmB: -0.24 °C

Structure (SMILES): COc1ccc(CC(C)N)cc1 (stereo not shown) [Prestw-Frag-3342, Compound 241]
- Bmal1(PASB) dTmB: -0.24 °C

Structure (SMILES): CS(=O)(=O)NC(Cc1ccccc1)C(=O)O (stereo not shown) [Prestw-Frag-3362, Compound 137]
- Bmal1(PASB) dTmB: 0.29 °C

Structure (SMILES): CNS(=O)(=O)CCc1ccccc1 [Prestw-Frag-3368, Compound 97]
- Bmal1(PASB) dTmB: -0.29 °C

Structure (SMILES): CCOC(=O)c1cccnc1 [Prestw-Frag-3382, Compound 96]
- Bmal1(PASB) dTmB: -0.50 °C

Structure (SMILES): O=C(CCCN1CCNCC1)c1ccc(F)cc1 [Prestw-Frag-3426, Compound 470]
- Bmal1(PASB) dTmB: -0.60 °C

Structure (SMILES): COc1ccc(CCN)cc1OC [Prestw-Frag-3454, Compound 202]
- Bmal1(PASB) dTmB: -0.13 °C

Structure (SMILES): Oc1ccc(Cc2ccccc2)cc1 [Prestw-Frag-3455, Compound 469]
- Bmal1(PASB) dTmB: -2.61 °C

Structure (SMILES): O=C1CNCCN1 [Prestw-Frag-3458, Compound 117]
- Bmal1(PASB) dTmB: -0.43 °C

Structure (SMILES): O=C1CN(Cc2ccccc2)CCN1 [Prestw-Frag-3459, Compound 48]
- Bmal1(PASB) dTmB: -0.65 °C

Structure (SMILES): CN1CCNCC1=O [Prestw-Frag-3460, Compound 125]
- Bmal1(PASB) dTmB: 0.00 °C

Structure (SMILES): Cn1cc(CC(=O)O)c2ccccc21 [Prestw-Frag-3461, Compound 75]
- Bmal1(PASB) dTmB: -0.44 °C

Structure (SMILES): NC1CCc2ccccc21 (stereo not shown) [Prestw-Frag-3462, Compound 90]
- Bmal1(PASB) dTmB: -0.81 °C

Structure (SMILES): O=C1COCCN1 [Prestw-Frag-3463, Compound 118]
- Bmal1(PASB) dTmB: -0.27 °C

Structure (SMILES): Cn1ccc(=O)[nH]1 [Prestw-Frag-3664, Compound 92]
- Bmal1(PASB) dTmB: 0.17 °C

Structure (SMILES): O=C1Cc2cc(F)ccc2N1 [Prestw-Frag-3667, Compound 261]
- Bmal1(PASB) dTmB: -0.23 °C

Structure (SMILES): O=C(O)CC1CCCCC1 [Prestw-Frag-3668, Compound 169]
- Bmal1(PASB) dTmB: 0.13 °C

Structure (SMILES): C#Cc1cccc(N)c1 [Prestw-Frag-3669, Compound 7]
- Bmal1(PASB) dTmB: -3.75 °C

Structure (SMILES): CN1CCN(c2ccc(N)cc2)CC1 [Prestw-Frag-3670, Compound 20]
- Bmal1(PASB) dTmB: 0.65 °C

Structure (SMILES): CCN1CCCC1CN (stereo not shown) [Prestw-Frag-3671, Compound 99]
- Bmal1(PASB) dTmB: -0.56 °C

Structure (SMILES): Fc1ccc(CN2CCNCC2)cc1 [Prestw-Frag-3673, Compound 274]
- Bmal1(PASB) dTmB: -1.00 °C

Structure (SMILES): O=C(c1ccccc1)N1CCNCC1 [Prestw-Frag-3677, Compound 184]
- Bmal1(PASB) dTmB: -0.65 °C

Structure (SMILES): COc1ccc2nc[nH]c2c1 [Prestw-Frag-3678, Compound 41]
- Bmal1(PASB) dTmB: -0.91 °C

Structure (SMILES): O=C1CC2(CCCC2)CC(=O)N1 [Prestw-Frag-3680, Compound 36]
- Bmal1(PASB) dTmB: -2.38 °C

Structure (SMILES): Nc1ccc2c(c1)CCCC2 [Prestw-Frag-3682, Compound 71]
- Bmal1(PASB) dTmB: 0.33 °C

Structure (SMILES): Nc1ncns1 [Prestw-Frag-3683, Compound 69]
- Bmal1(PASB) dTmB: -0.32 °C

Structure (SMILES): CC(=O)c1ccc2c(c1)OCO2 [Prestw-Frag-3686, Compound 57]
- Bmal1(PASB) dTmB: -1.06 °C

Structure (SMILES): NCc1ncc[nH]1 [Prestw-Frag-3689, Compound 15]
- Bmal1(PASB) dTmB: -1.37 °C

Structure (SMILES): CNC(=O)c1c(-c2ccccc2)noc1C [Prestw-Frag-3690, Compound 210]
- Bmal1(PASB) dTmB: -0.42 °C

Structure (SMILES): CN1CCN(CCCC(=O)c2ccc(F)cc2)CC1 [Prestw-Frag-3692, Compound 279]
- Bmal1(PASB) dTmB: -0.28 °C

Structure (SMILES): Oc1cccc2[nH]ccc12 [Prestw-Frag-3696, Compound 12]
- Bmal1(PASB) dTmB: -0.70 °C

Structure (SMILES): O=C1COc2cc(O)ccc21 [Prestw-Frag-3703, Compound 77]
- Bmal1(PASB) dTmB: 0.62 °C

Structure (SMILES): c1ccc(C2COCCN2)cc1 (stereo not shown) [Prestw-Frag-3705, Compound 182]
- Bmal1(PASB) dTmB: -0.30 °C

Structure (SMILES): CC(C(=O)O)c1cccc(F)c1 (stereo not shown) [Prestw-Frag-3706, Compound 79]
- Bmal1(PASB) dTmB: 0.26 °C

Structure (SMILES): NC1CCc2[nH]c3ccccc3c2C1 (stereo not shown) [Prestw-Frag-3709, Compound 361]
- Bmal1(PASB) dTmB: 1.14 °C

Structure (SMILES): O=C(O)C(c1ccccc1)c1ccccc1 [Prestw-Frag-3711, Compound 127]
- Bmal1(PASB) dTmB: -0.11 °C

Structure (SMILES): c1ccc(C2CCCNCC2)cc1 (stereo not shown) [Prestw-Frag-3712, Compound 230]
- Bmal1(PASB) dTmB: -0.85 °C

Structure (SMILES): Oc1ccc2c(c1)CCC2 [Prestw-Frag-3713, Compound 89]
- Bmal1(PASB) dTmB: -0.82 °C

Structure (SMILES): NC1CCC(=O)NC1=O (stereo not shown) [Prestw-Frag-3716, Compound 102]
- Bmal1(PASB) dTmB: -0.05 °C

Structure (SMILES): CC(O)(C(=O)O)c1ccccc1 (stereo not shown) [Prestw-Frag-3717, Compound 103]
- Bmal1(PASB) dTmB: -0.01 °C

Structure (SMILES): O=C1CNCN1 [Prestw-Frag-3718, Compound 116]
- Bmal1(PASB) dTmB: -0.07 °C

Structure (SMILES): c1cncc(CN2CCNCC2)c1 [Prestw-Frag-3722, Compound 288]
- Bmal1(PASB) dTmB: -0.77 °C

Structure (SMILES): NC(=O)N1CCNCC1 [Prestw-Frag-3723, Compound 152]
- Bmal1(PASB) dTmB: 0.03 °C

Structure (SMILES): Cc1n[nH]c(C)c1N [Prestw-Frag-3724, Compound 23]
- Bmal1(PASB) dTmB: -1.19 °C

Structure (SMILES): FC(F)(F)c1ccn[nH]1 [Prestw-Frag-3726, Compound 192]
- Bmal1(PASB) dTmB: 0.30 °C

Structure (SMILES): OCC1CCNCC1 [Prestw-Frag-3727, Compound 325]
- Bmal1(PASB) dTmB: 0.08 °C

Structure (SMILES): OCC1CCCNC1 (stereo not shown) [Prestw-Frag-3728, Compound 390]
- Bmal1(PASB) dTmB: -0.26 °C

Structure (SMILES): c1cc(N2CCNCC2)ncn1 [Prestw-Frag-3729, Compound 289]
- Bmal1(PASB) dTmB: -0.01 °C

Structure (SMILES): N#CCC(=O)N1CCCCC1 [Prestw-Frag-3730, Compound 302]
- Bmal1(PASB) dTmB: 0.12 °C

Structure (SMILES): CCN(CC)C(=O)CC#N [Prestw-Frag-3731, Compound 282]
- Bmal1(PASB) dTmB: -0.04 °C

Structure (SMILES): c1ccc2c(c1)NCCO2 [Prestw-Frag-3732, Compound 54]
- Bmal1(PASB) dTmB: 0.57 °C

Structure (SMILES): CC(C)(CN)c1ccccc1 [Prestw-Frag-3733, Compound 285]
- Bmal1(PASB) dTmB: -0.30 °C

Structure (SMILES): O=c1[nH]cncc1-c1ccccc1 [Prestw-Frag-3734, Compound 254]
- Bmal1(PASB) dTmB: -0.26 °C

Structure (SMILES): Oc1ccccc1N1CCNCC1 [Prestw-Frag-3738, Compound 34]
- Bmal1(PASB) dTmB: 0.10 °C

Structure (SMILES): COc1ccc2c(c1)CCC(C(=O)O)C2 (stereo not shown) [Prestw-Frag-3739, Compound 163]
- Bmal1(PASB) dTmB: 0.52 °C

Structure (SMILES): Cn1c(N)nc2ccccc21 [Prestw-Frag-3740, Compound 377]
- Bmal1(PASB) dTmB: -0.10 °C

Structure (SMILES): OCc1ccc2c(c1)OCO2 [Prestw-Frag-3741, Compound 372]
- Bmal1(PASB) dTmB: -0.20 °C

Structure (SMILES): CC1=NN(c2ccccc2)C(=O)C1 [Prestw-Frag-3742, Compound 81]
- Bmal1(PASB) dTmB (Bmal1(PASB) dTmB): 1.77 °C

Structure (SMILES): Cc1nc(-c2ccccc2)cs1 [Prestw-Frag-3743, Compound 378]
- Bmal1(PASB) dTmB: -0.52 °C

Structure (SMILES): c1ccc(-n2ccnc2)cc1 [Prestw-Frag-3744, Compound 409]
- Bmal1(PASB) dTmB: -0.78 °C

Structure (SMILES): Cc1nc(-c2ccccc2F)cs1 [Prestw-Frag-3745, Compound 298]
- Bmal1(PASB) dTmB: -0.20 °C

Structure (SMILES): NCCc1ccc(F)cc1F [Prestw-Frag-3746, Compound 138]
- Bmal1(PASB) dTmB: -0.34 °C

Structure (SMILES): NCc1cscn1 [Prestw-Frag-3747, Compound 29]
- Bmal1(PASB) dTmB: -1.05 °C
